Results published in patent publication US20250228865A1, “COMPOUNDS FOR ENHANCING READ THROUGH OF GENES CONTAINING PREMATURE TERMINATION CODONS AND METHODS FOR MAKING AND USING THE SAME” (Sanofi US Services Inc., priority 2022, published 2025).
pEC50: −log10 of the molar value. Read-outs that look alike come from different tables or passages of the source.

Columns and labels:
[1] = tested on: recombinant human CFTR carrying the premature stop codon (PTC) mutation R1162X; assay: CFTR-PTC mutant translation readthrough, Nanoluc tagged CFTR luminescence (R1162X cell line); assay type: cell-based; conditions: for CFTR R1162X ACTIVITY Fold 10 μM G-418: fold over 10 μM G-418, in combination with G418
Description: (§1) 16HBE human bronchial epithelial cells (stably over-expressing recombinant human CFTR carrying the premature stop codon (PTC) mutation G542X or R1162X along with a Nanoluc tag incorporated into the CFTR channel within extracellular loop 4 in G542X cell line or C-terminus end in the R1162X cell line were seeded at 0.01×10^6 cells/well and grown in Minimal Essential Medium (MEM) as monolayers in 384 well plates and incubated at 37° C. with 5% CO2. Media was changed every other day until day of experiment. Agents to be evaluated were made up in separate 384 well, polypropylene plates at a 2X the final desired test concentration. Test agent 10-point concentration response curves were constructed using the Labcyte Echo 555 acoustic dispenser. Test agents were typically tested at a max final test concentrations of 50 μM with sequential 2-fold lower concentrations below this in the absence or presence of a fixed 10 μM concentration of the aminoglycoside G418 made up in MEM growth media (reduced Serum Media+HEPES Buffer+2.4 g/L Sodium Bicarbonate+L-Glutamine containing CFTR corrector VX-809 (3 μM)). Treatment with 10 μM G418 alone produced approximately 10% of the response observed with a maximally effective concentration of G418 (typically 125-250 μM). Test agent effects in presence of 10 μM G418 were compared to control wells on the plate containing a maximally effective concentration of G418 (typically 125-250 μM) made up in the same media. 25 ul of test agents/control solutions were transferred from the compound plate to the cell plate, which already contained 25 ul/well of cell plating media, using an Integra Viaflo 384. Cell plates were incubated with the compounds for 48 hours, at which time they were processed using Nanoluc luminescence Kit (Promega Nano-Glo Live Cell Assay System) to measure CFTR-PTC mutant translation readthrough. Luminescence was measured as follows. Cell plates were removed from the incubator and allowed to equilibrate to room temperature for 20 minutes. Media was removed from all wells and the plates were blotted to remove excess remaining volume. Nano-Glo Live Cell Substrate was diluted 1:20 in the appropriate amount of Nano-Glo LCS Dilution Buffer to accommodate the number of cell plates being tested. The substrate/dilution buffer mix was then diluted 1:3 with MEM media to make the appropriate volume for the number of plates being tested. The substrate/dilution buffer/OptiMEM mix was added across the Nanoluc testing cell plates and the plates were read for luminescence signal immediately. Test agent effects on CFTR translation readthrough was determined by normalizing any observed increase in luminescence induced by 48 hours pretreatment with test compound to the magnitude of luminescence increase produced by pretreatment with a maximally effective concentration of the reference readthrough enhancing agent G418 (125-250 μM).

[2] = tested on: recombinant human CFTR carrying the premature stop codon (PTC) mutation G542X; assay: CFTR-PTC mutant translation readthrough, Nanoluc tagged CFTR luminescence (G542X cell line); assay type: cell-based; conditions: in combination with G418, G542X cell line; for CFTR G542X ACTIVITY Fold 10 μM G-418: fold over 10 μM G-418; for pEC50: 16HBE cells
Description: as §1

[3] = in combination with G418, 16HBE cells, read-out: CFTR R1162X ACTIVITY EC50
[4] = read-out: CFTR R1162X ACTIVITY EC50, in combination with G418, 16HBE cells

pEC50 [1, 3] | pEC50 [2] | SMILES | CFTR R1162X ACTIVITY Fold 10 μM G-418 [1] | CFTR G542X ACTIVITY Fold 10 μM G-418 [2] | pEC50 [1, 4]
> 6.00 | – | NC(=O)c1ccn(-c2ncc(OCc3c(C(F)(F)F)cccc3C(F)(F)F)cn2)n1 | A′ (A′ = ≥10X) | – | –
> 6.00 | – | O=C1CN(c2ccc(OCc3c(Cl)ccc(F)c3C(F)(F)F)cn2)C(=O)N1 | A′ (A′ = ≥10X) | – | –
5.00 to 6.00 | 5.00 to 6.00 | O=C1OC(CO)CN1c1ncc(OCc2c(Cl)cccc2C(F)(F)F)cn1 (stereo not drawn) | A′ (A′ = ≥10X) | A′ (A′ = ≥10X) | –
5.00 to 6.00 | > 6.00 | CN1C(=O)CN(c2ncc(OCc3c(Cl)cccc3C(F)(F)F)cn2)CC1CO (stereo not drawn) | C′ (C′ = <5X) | C′ (C′ = <5X) | –
< 5.00 | 5.00 to 6.00 | O=C(O)C1CN(c2ccc(OCc3c(Cl)cccc3C(F)(F)F)cn2)CCO1 (stereo not drawn) | C′ (C′ = <5X) | C′ (C′ = <5X) | –
5.00 to 6.00 | 5.00 to 6.00 | NC(=O)C1CN(c2ncc(OCc3c(Cl)cccc3C(F)(F)F)cn2)CC(=O)N1 (stereo not drawn) | C′ (C′ = <5X) | C′ (C′ = <5X) | –
5.00 to 6.00 | 5.00 to 6.00 | O=C1COC(CO)CN1c1ccc(OCc2c(Cl)cccc2C(F)(F)F)cn1 (stereo not drawn) | A′ (A′ = ≥10X) | A′ (A′ = ≥10X) | –
> 6.00 | – | OCc1ccn(-c2ncc(OCc3c(C(F)(F)F)cccc3C(F)(F)F)cn2)n1 | A′ (A′ = ≥10X) | – | –
> 6.00 | – | OCc1ncn(-c2ncc(OCc3c(Cl)ccc(F)c3C(F)(F)F)cn2)n1 | A′ (A′ = ≥10X) | – | –
> 6.00 | > 6.00 | OCc1nnc(-c2ccc(OCc3c(Cl)cccc3C(F)(F)F)cn2)o1 | C′ (C′ = <5X) | C′ (C′ = <5X) | –
< 5.00 | – | O=C1N[C@H](CO)CN1c1ncc(OCc2c(C(F)(F)F)cccc2C(F)(F)F)cn1 [(4S)-1-(5-{[2,6-bis(trifluoromethyl)phenyl]methoxy}pyrimidin-2-yl)-4-(hydroxymethyl)imidazolidin-2-one] | C′ (C′ = <5X) | – | –
5.00 to 6.00 | – | Cc1cccc(C(F)(F)F)c1COc1cnc(N2C[C@@H](CO)NC2=O)nc1 [(4S)-4-(hydroxymethyl)-1-(5-{[2-methyl-6-(trifluoromethyl)phenyl]methoxy}pyrimidin-2-yl)imidazolidin-2-one] | C′ (C′ = <5X) | – | –
> 6.00 | – | O=C1CN(c2ncc(OCc3c(Cl)cccc3C(F)(F)F)cn2)C1 [Compound 355, 1-(5-{[2-chloro-6-(trifluoromethyl)phenyl]methoxy}pyrimidin-2-yl)azetidin-3-one] | A′ (A′ = ≥10X) | – | –

Second part, the compound before the results:

SMILES | pEC50 [1, 3] | pEC50 [2] | CFTR R1162X ACTIVITY Fold 10 μM G-418 [1] | CFTR G542X ACTIVITY Fold 10 μM G-418 [2] | pEC50 [1, 4]
N#CC1(O)CN(c2ncc(OCc3c(Cl)cccc3C(F)(F)F)cn2)C1 | > 6.00 | – | A′ (A′ = ≥10X) | – | –
[2H]C([2H])(O)c1ncn(-c2ccc(OC([2H])([2H])c3c(Cl)cccc3C(F)(F)F)cc2)n1 | > 6.00 | > 6.00 | C′ (C′ = <5X) | C′ (C′ = <5X) | –
Cc1ccc(F)c(C(F)(F)F)c1COc1ccc(-n2cnc(CO)n2)cc1 | > 6.00 | – | A′ (A′ = ≥10X) | – | –
OCc1cn(-c2ncc(OCc3c(C(F)(F)F)cccc3C(F)(F)F)cn2)cn1 | > 6.00 | – | A′ (A′ = ≥10X) | – | –
OCc1ncn(-c2ncc(OCc3c(Cl)cccc3Cl)cn2)n1 | 5.00 to 6.00 | 5.00 to 6.00 | C′ (C′ = <5X) | C′ (C′ = <5X) | –
O=C1CN(c2ccc(OCc3c(C(F)(F)F)cccc3C(F)(F)F)cn2)C(=O)N1 [1-(5-{[2,6-bis(trifluoromethyl)phenyl]methoxy}pyridin-2-yl)imidazolidine-2,4-dione] | > 6.00 | – | A′ (A′ = ≥10X) | – | –
O=C1OC(CO)CN1c1ccc(OCc2c(Cl)ccc(F)c2Cl)cn1 (stereo not drawn) [3-{5-[(2,6-dichloro-3-fluorophenyl)methoxy]pyridin-2-yl}-5-(hydroxymethyl)-1,3-oxazolidin-2-one] | 5.00 to 6.00 | – | C′ (C′ = <5X) | – | –
O=C1CN(c2ccc(OCc3c(Cl)cccc3Cl)cn2)C(=O)N1 [Compound 332, 1-{5-[(2,6-dichlorophenyl)methoxy]pyridin-2-yl}imidazolidine-2,4-dione] | > 6.00 | – | C′ (C′ = <5X) | – | –
O=C1CN(c2cnc(OCc3c(Cl)cccc3Cl)cn2)C(=O)N1 [Compound 336, 1-{5-[(2,6-dichlorophenyl)methoxy]pyrazin-2-yl}imidazolidine-2,4-dione] | 5.00 to 6.00 | – | C′ (C′ = <5X) | – | –
O=C1CN(c2ccc(OCc3c(Cl)ccc(F)c3Cl)cn2)C(=O)N1 [Compound 341, 1-{5-[(2,6-dichloro-3-fluorophenyl)methoxy]pyridin-2-yl}imidazolidine-2,4-dione] | > 6.00 | – | C′ (C′ = <5X) | – | –
O=C1CN(c2ccc(OCc3c(Cl)cc(F)cc3Cl)cn2)C(=O)N1 [Compound 349, 1-{5-[(2,6-dichloro-4-fluorophenyl)methoxy]pyridin-2-yl}imidazolidine-2,4-dione] | 5.00 to 6.00 | – | C′ (C′ = <5X) | – | –
O=C1CN(c2ccc(OCc3c(Cl)cccc3Cl)nn2)C(=O)N1 [Compound 351, 1-{6-[(2,6-dichlorophenyl)methoxy]pyridazin-3-yl}imidazolidine-2,4-dione] | 5.00 to 6.00 | – | C′ (C′ = <5X) | – | –
OCc1ncn(-c2ccc(OCc3c(Cl)cccc3Cl)cn2)n1 [Example 337, (1-{5-[(2,6-dichlorophenyl)methoxy]pyridin-2-yl}-1,2,4-triazol-3-yl) methanol] | > 6.00 | – | C′ (C′ = <5X) | – | –
OCc1ccn(-c2cnc(OCc3c(Cl)cccc3Cl)cn2)n1 [Example 339, (1-{5-[(2,6-dichlorophenyl)methoxy]pyrazin-2-yl}pyrazol-3-yl) methanol] | – | – | C′ (C′ = <5X) | – | 5.00 to 6.00
OCc1cncn1-c1ncc(OCc2c(Cl)cccc2Cl)cn1 [Example 362, (3-{5-[(2,6-dichlorophenyl)methoxy]pyrimidin-2-yl}imidazol-4-yl) methanol] | – | – | A′ (A′ = ≥10X) | – | 5.00 to 6.00
